Measurements from the supplement of paper PMC8253809.

Legend:
HGGX42 = H3.3 G34R paediatric high-grade glioma line; assay: growth inhibition relative to DMSO (0) and positive control (1) (fraction); higher = more growth inhibition
Procedure: (§1)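 Paxalisib (GDC0084) x mirdametinib (PD0325901) dose matrix on pHGG cell lines and astrocyte controls, 7 days, adherent 384-well. CellTiter-Glo RLU was normalised (no log2) to fractional activity between DMSO (0) and the positive control (1). Each combination was tested in two plate orientations.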

HABS = astrocyte control; assay: as above
Procedure: as §1

O=C(NOC[C@H](O)CO)c1ccc(F)c(F)c1Nc1ccc(I)cc1F + CC1(C)OCCn2c1nc1c(N3CCOCC3)nc(-c3cnc(N)nc3)nc12 [GDC0084]
growth inhibition
Details | compound 1 concentration 0.009766 µM | compound 1 concentration 0.01953 µM | compound 1 concentration 0.03906 µM | compound 1 concentration 0.07812 µM | compound 1 concentration 0.15625 µM | compound 1 concentration 0.3125 µM | compound 1 concentration 0.625 µM | compound 1 concentration 1.25 µM | compound 1 concentration 5 µM | compound 1 concentration 20 µM
HABS, compound 2 concentration 0.03906 µM | -0.277 | -0.277 | -0.363 | -0.35 | -0.36 | -0.157 | 0.0702 | 0.206 | 0.655 | 0.785
HABS, compound 2 concentration 0.07812 µM | -0.0837 | -0.115 | -0.185 | -0.276 | -0.182 | -0.0585 | 0.174 | 0.282 | 0.686 | 0.84
HABS, compound 2 concentration 0.15625 µM | 0.00867 | -0.00819 | -0.125 | -0.152 | -0.102 | 0.0679 | 0.212 | 0.368 | 0.765 | 0.893
HABS, compound 2 concentration 0.3125 µM | 0.0584 | 0.00491 | -0.0298 | -0.035 | -0.004 | 0.119 | 0.251 | 0.39 | 0.784 | 0.918
HABS, compound 2 concentration 0.625 µM | 0.158 | 0.129 | 0.116 | 0.0817 | 0.117 | 0.224 | 0.337 | 0.487 | 0.849 | 0.948
HABS, compound 2 concentration 1.25 µM | 0.352 | 0.341 | 0.305 | 0.259 | 0.336 | 0.387 | 0.482 | 0.573 | 0.912 | 0.98
HABS, compound 2 concentration 5 µM | 0.731 | 0.725 | 0.702 | 0.703 | 0.706 | 0.689 | 0.739 | 0.792 | 0.974 | 0.997
HABS, compound 2 concentration 20 µM | 0.963 | 0.956 | 0.951 | 0.939 | 0.938 | 0.927 | 0.938 | 0.957 | 0.998 | 1
HGGX42, compound 2 concentration 0.03906 µM | 0.121 | 0.215 | -0.0211 | 0.146 | -0.0192 | 0.0136 | 0.0247 | 0.074 | 0.354 | 0.554
HGGX42, compound 2 concentration 0.07812 µM | 0.188 | 0.255 | 0.106 | 0.265 | 0.148 | 0.0907 | 0.211 | 0.153 | 0.575 | 0.609
HGGX42, compound 2 concentration 0.15625 µM | 0.307 | 0.29 | 0.478 | 0.322 | 0.224 | 0.377 | 0.32 | 0.341 | 0.477 | 0.686
HGGX42, compound 2 concentration 0.3125 µM | 0.494 | 0.466 | 0.484 | 0.515 | 0.431 | 0.424 | 0.294 | 0.326 | 0.507 | 0.716
HGGX42, compound 2 concentration 0.625 µM | 0.673 | 0.632 | 0.625 | 0.647 | 0.57 | 0.606 | 0.602 | 0.528 | 0.674 | 0.8
HGGX42, compound 2 concentration 1.25 µM | 0.782 | 0.743 | 0.746 | 0.753 | 0.748 | 0.706 | 0.723 | 0.703 | 0.803 | 0.895
HGGX42, compound 2 concentration 5 µM | 0.875 | 0.86 | 0.872 | 0.883 | 0.882 | 0.872 | 0.881 | 0.876 | 0.93 | 0.979
HGGX42, compound 2 concentration 20 µM | 0.898 | 0.898 | 0.901 | 0.911 | 0.908 | 0.899 | 0.907 | 0.908 | 0.956 | 0.986
